The source of these data is patent US20130034497A1, “IODINE-LABELED HOMOGLUTAMIC ACID AND GLUTAMIC ACID DERIVATIVES” (PIRAMAL IMAGING SA, priority 2009, published 2013).

Structures are written as SMILES.

For series [1], the system named is NCl-H460 cells. As to the kind of experiment: cell competition experiment with I125-labeled derivative as tracer. It counts as cell-based, human. On the procedure: To determine the specificity of (2S,4S)-2-Amino-4-(4-hydroxy-3-[1-125]-iodobenzyl)-pentanedioic acid, the compound was used as tracer in a cell competition experiment in H460 tumor cells against an excess of L-Glutamic acid (1 mM).
FIG. 3: Examination of biological activity of (2S,4S)-2-Amino-4-(3-[4-[I-125]-iodophenoxy]propylypentanedioic acid in a cell competition experiment. (NCl-H460 cells, 30 min incubation with I125-labeled derivative in PBS-buffer, concentration of “cold” derivative 1 mM).
FIG. 5: Determination of biological activity of (2S,4S)-2-Amino-4-(4-hydroxy-3-[I-125]-iodobenzyl)-pentanedioic acid in a cell competition experiment. (NCl-H460 cells, 10 min incubation with [I125]-labeled derivative in PBS-buffer, concentration of L-Glutamate 1 mM).

For series [2], the system named is NCl-H460 cells. Briefly: tumor cell uptake/binding experiment with I125-labeled derivative. The format is cell-based, human. On the procedure:
FIG. 6 The time dependence of uptake of (2S,4S)-2-Amino-4-(4-[I-125]-iodo-benzyl)-pentanedioic acid was determined. H460 cells were incubated with 0.25 MBq (2S,4S)-2-Amino-4-(4-[I-125]-iodo-benzyl)-pentanedioic acid for up to 60 min and the cell-bound fraction was determined after 10, 20, 30 and 60 min).
In a next experiment, NCl-H460 cells were incubated with [I125]-labeled (2S,4S)-2-Amino-4-(3-[4-[I-125]-iodophenoxy]propylypentanedioic acid for up to 30 min and the cell-bound fraction was determined. Approximately 12% of applied activity was bound to the cells after 30 min incubation (FIG. 2).
FIG. 2: E xamination of biological activity of (2S,4S)-2-Amino-4-(3-[4-[I-125]-iodophenoxy]propylypentanedioic acid in a tumor cell uptake/binding experiment. (NCl-H460 cells, up to 30 min incubation with I125-labeled derivative).
Cell uptake & Retention of (2S,4S)-2-Amino-4-(4-[1-125]-iodo-benzyl)-pentanedioic acid—For determination of the biological activity of (2S,4S)-2-Amino-4-(4-[I-125]-iodo-benzyl)-pentanedioic acid, the I-125 labeled compound was used as tracer in a cell uptake experiment using H460 (human NSCLC) cells. Approximately 100.000 cells were incubated with 0.25 MBq (2S,4S)-2-Amino-4-(4-[I-125]-iodo-benzyl)-pentanedioic acid for up to 60 minutes in PBS-buffer containing 0.1% BSA and the cell-bound fraction was determined. […] Approximately 22,3% of applied dose was taken up by the cells during the 60 min incubation period (see FIG. 6).

Series [3] has as its system NCl-H460 (human NSCLC) tumor cells. Briefly: cell competition experiment with 3H-glutamic acid as tracer, NCl-H460 cells. The format is cell-based. On the procedure: FIG. 9 Examination of biological activity of (S)-2-Amino-5-(4-iodobenzyl)-hexanedioic acid in a cell-competition-experiment (H460 cells, 30 min incubation with 3H-glutamic acid in PBS-Puffer, concentration of competitor 1 mM and 0.1 mM).
The specificity of binding to NCl-H460 (human NSCLC) tumor cells was examined using 3H-Glutamic acid as tracer and (2S,4S)-2-Amino-4-(3-[4-iodophenoxy]propyl)-pentanedioic acid in concentrations ranging from 4 μM to 1 mM.
(§1) The specificity of binding was examined in a cell competition experiment using 3H-glutamic acid as tracer and (2S,4S)-2-Amino-4-(4-iodo-benzyl)-pentanedioic acid in excess (1 mM) to compete for transporter.
FIG. 1: Concentration dependent blocking of 3H-Glutamic acid uptake in H460 cells using different concentrations of (2S,4S)-2-Amino-4-(3-[4-iodophenoxy]propyl)-pentanedioic acid.
(§2) FIG. 4: Examination of biological activity of (2S,4S)-2-Amino-4-(4-iodo-benzyl)-pentanedioic acid in a cell competition experiment. (NCl-H460 cells, A549 cells, 10 min incubation with 1 μCi 3H-Glutamic acid in PBS-buffer, concentration of test compound 1 mM).
The ability of (S)-2-Amino-5-(4-iodobenzyl)-hexanedioic acid to compete with uptake of glutamic acid into tumor cells was examined. Therefore, tumor cells were co-incubated with 3H-labeled glutamic acid and (S)-2-Amino-5-(4-iodobenzyl)-hexanedioic acid. This compounds was used in large excess to the tracer 3H-glutamic acid. Two concentrations were examined (1mM an 0.1 mM).

For series [4], the system named is NCl-H460 (human NSCLC) tumor bearing nude-mice. As to the kind of experiment: SPECT imaging in tumor bearing nude-mice. To be noted: approx. 10 MBq; images acquired at 60 min p.i. for 35 min. The format is in vivo, nude-mice (NMRI nu/nu). On the procedure: FIG. 8 SPECT imaging with (2S,4S)-2-Amino-4-(4-[I-125]odo-benzyl)-pentanedioic acid after injection into H460 tumor bearing mouse.
SPECT imaging. (2S,4S)-2-Amino-4-(4-[I-125]-iodo-benzyl)-pentanedioic acid was examined in NCl-H460 (human NSCLC) tumor bearing nude-mice (NMRI nu/nu). Approx. 10 MBq of (2S,4S)-2-Amino-4-(4-[I-125]-iodo-benzyl)pentanedioic acid was injected into the mouse. SPECT imaging was performed using a γ-camera (Nucline SPIRIT DH-V). Images were aquired at 60 min p.i. for 35 min with 60 sec/frame.

In series [5] the test system is H460 tumor cells. Briefly: retention of activity in tumor cells (efflux). The format is cell-based, human. To be noted: H460 cells loaded 30 min; after 30 min in new PBS-buffer (efflux conditions). On the procedure:
FIG. 7 Examination of retention of (2S,4S)-2-Amino-4-(4-[I-125]odo-benzyl)-pentanedioic acid in H460 tumor cells. H460 cells were loaded with 0.25 MBq (2S,4S)-2-Amino-4-(4-[I-125]-iodo-benzyl)-pentanedioic acid for 30 min in PBS/BSA. After washing, the cells were incubated with new buffer (without radioactivity) for additional 10, 20, 30 min. The release of radioactivity into the supernatant as well as the retention inside the cells was determined.
In a second experiment, the retention of activity in tumor cells was examined. H460 cells were loaded with 0.25 MBq (2S,4S)-2-Amino-4-(4-[I-125]-iodo-benzyl)-pentanedioic acid for 30 minutes in PBS/BSA-buffer. After this uptake, the buffer was removed and the cells were washed with PBS. The cells were then incubated with new PBS-buffer (without activity) for up to 30 min. The release of activity into the supernatant as well as the retention of activity inside the cells was examined. It was discovered, that more than 75% of activity were retained in the tumor cells after 30 min under these efflux conditions (see FIG. 7).

The test system of series [6] is H460 tumor bearing mice. As to the kind of experiment: Biodistribution in H460 tumor bearing mice. It counts as in vivo, NMRI (nu/nu) mice. Conditions: for Bilanz/summary Recovery / Bilanz/summary urine: in % (unit assumed). On the procedure:
Biodistribution in H460 tumor bearing mice. To test the pharmacokinetic properties of (2S,4S)-2-Amino-4-(4-[I-125]-iodo-benzyl)-pentanedioic acid, the iodinated compound was examined in H460 tumor bearing mice. NMRI (nu/nu) mice were inoculated with H460 tumor cells 8 to 10 days before the biodistribution studies. 185 kBq of activity of the tracer was injected into each mouse. n=3 mice were used at every time point. After injection of the I125-labeled compound, mice were sacrificed at the time points indicated. All organs were removed and radioactivity was determined using a γ-counter. […] Very rapid clearance of radioactivity takes place via the kidneys, with more than 90% of activity being excreted after 30 min p.i.

In series [7] the test system is A549 (human NSCLC cell line). As to the kind of experiment: cell competition experiment with 3H-glutamic acid as tracer, A549 cells. It counts as cell-based. To be noted: test compound 1 mM, 10 min incubation with 1 μCi 3H-Glutamic acid in PBS-buffer. On the procedure:
as §1, §2

Turning to `N[C@@H](C[C@H](CCCOc1ccc([125I])cc1)C(=O)O)C(=O)O` [(2S,4S)-2-Amino-4-(3-[4-[I-125]-iodophenoxy]propyl)-pentanedioic acid], the “binding of I125 tracer with cold derivative in excess” value in series [1] (NCl-H460 cells, 30 min incubation in PBS-buffer, cold derivative 1 mM) was “a large decrease in binding was observed”. Further, the cell-bound fraction entry in series [2] (NCl-H460 cells, after 30 min incubation) is “Approximately 12 % of applied activity”.
Turning to `N[C@@H](C[C@H](CCCOc1ccc(I)cc1)C(=O)O)C(=O)O` [(2S,4S)-2-Amino-4-(3-[4-iodophenoxy]propyl)-pentanedioic acid], the “uptake of 3H-glutamic acid (blocking)” value in series [3] (NCl-H460 cells, test compound 4 μM to 1 mM) is on record as “able to reduce the uptake of glutamic acid in NCl-H460 cells in a concentration dependent manner”.
Take `N[C@@H](C[C@H](Cc1ccc([125I])cc1)C(=O)O)C(=O)O` [(2S,4S)-2-Amino-4-(4-[I-125]-iodo-benzyl)-pentanedioic acid]: the “tumor visibility in SPECT-images” value in series [4] is given as “The tumor was very well visible”. The “activity retained in the tumor cells” value in series [5] was “more than 75 % of activity”. In series [6] (0.5 h), the Bilanz/summary carcass amounted to 3.4%, the Bilanz/summary organs was determined as 10.2%, the blood is recorded as 0.28 % Dosis/g and the gallbladder amounted to 8.09 % Dosis/g. In series [6] (0.5 h), this compound gave an intestine of 1.26 % Dosis/g, a kidney of 2.14 % Dosis/g, a liver of 0.25 % Dosis/g and a pancreas of 0.62 % Dosis/g. In series [6] (0.5 h), the thyroid was 0.43 % Dosis/g, the tumor was found to be 4.12 % Dosis/g, the “Bilanz/summary Recovery” value came out at 112.7 and the Bilanz/summary urine worked out at 99.1. In addition, the “uptake in the tumor” value in series [6] (30 min p.i., 185 kBq) was 4.12 % injected dose per gram of tumor. In series [6] (1 h), this compound registered a Bilanz/summary carcass of 2.2%, a Bilanz/summary faeces of 0.7%, a Bilanz/summary organs of 6.8% and a blood of 0.13 % Dosis/g. In series [6] (1 h), this compound displayed a gallbladder of 5.00 % Dosis/g, an intestine of 0.85 % Dosis/g, a kidney of 0.83 % Dosis/g and a liver of 0.07 % Dosis/g. Further, in series [6] (1 h), the pancreas is 0.12 % Dosis/g, the thyroid was determined as 0.72 % Dosis/g, the tumor is 3.68 % Dosis/g and the “Bilanz/summary Recovery” value is on record as 109.3. In series [6] (1 h), this compound gave a Bilanz/summary urine of 99.6. In series [6] (2 h), this compound registered a Bilanz/summary carcass of 1.1%, a Bilanz/summary faeces of 2%, a Bilanz/summary organs of 3.8% and a blood of 0.08 % Dosis/g. In series [6] (2 h), this compound gave a gallbladder of 4.73 % Dosis/g, an intestine of 0.78 % Dosis/g, a kidney of 0.24 % Dosis/g and a liver of 0.03 % Dosis/g. Also, in series [6] (2 h), the pancreas is recorded as 0.06 % Dosis/g, the thyroid was 0.42 % Dosis/g, the tumor was 1.90 % Dosis/g and the “Bilanz/summary Recovery” value was 109.7. The same compound registered a Bilanz/summary urine in series [6] (2 h) of 102.8. In series [6] (4 h), this compound had a Bilanz/summary carcass of 0.5%, a Bilanz/summary faeces of 0.1%, a Bilanz/summary organs of 2.8% and a blood of 0.06 % Dosis/g. In series [6] (4 h), this compound had a gallbladder of 6.63 % Dosis/g, an intestine of 1.32 % Dosis/g, a kidney of 0.10 % Dosis/g and a liver of 0.03 % Dosis/g. For the same compound, in series [6] (4 h), the pancreas was found to be 0.03 % Dosis/g, the thyroid stood at 1.05 % Dosis/g, the tumor is given as 1.55 % Dosis/g and the “Bilanz/summary Recovery” value is on record as 115.3. Besides, the Bilanz/summary urine in series [6] (4 h) came to 111.9. Further, the “activity excreted via the kidneys” value in series [6] (after 30 min p.i.) is on record as “more than 90 % of activity”. Also, the “uptake by the cells” value in series [2] (H460 cells, 0.25 MBq, 60 min incubation, PBS-buffer containing 0.1% BSA) is recorded as “Approximately 22,3 % of applied dose”. For the same compound, the “time dependence of uptake” value in series [2] (H460 cells, 0.25 MBq, up to 60 min, PBS-buffer containing 0.1% BSA) is recorded as “A time-dependent uptake was observed”.
On to `N[C@@H](C[C@H](Cc1ccc(O)c([125I])c1)C(=O)O)C(=O)O` [(2S,4S)-2-Amino-4-(4-hydroxy-3-[I-125]-iodobenzyl)-pentanedioic acid], for which, in series [1] (H460 cells, 10 min incubation in PBS-buffer, L-Glutamate 1 mM), the “uptake of I125 tracer against excess of L-Glutamic acid” value is “the uptake was blockable by excess of glutamic acid”.
For `N[C@@H](C[C@H](Cc1ccc(I)cc1)C(=O)O)C(=O)O` [(2S,4S)-2-Amino-4-(4-iodo-benzyl)-pentanedioic acid], the “uptake of 3H-glutamic acid” value is given as “able to reduce the uptake of glutamic acid” in series [7] and “able to reduce the uptake of glutamic acid” in series [3] (NCl-H460 cells, test compound 1 mM, 10 min incubation with 1 μCi 3H-Glutamic acid in PBS-buffer).
As to `N[C@@H](CCC(Cc1ccc(I)cc1)C(=O)O)C(=O)O` (stereo partly drawn) [(S)-2-Amino-5-(4-iodobenzyl)-hexanedioic acid], in series [3] (H460 cells, 30 min incubation, competitor 1 mM and 0.1 mM), the “uptake of 3H-glutamic acid” value is reported as “strongly reduces the uptake of glutamic acid”.
